The results in this text go back to patent publication US20040034084A1, “Methods for using JNK inhibitors for treating or preventing disease-related wasting” (Celgene Corporation, priority 2002, published 2004).

The term IC50 denotes the point on the concentration scale where inhibition reaches its midpoint.

One assay deals with T1, His6-JNK2 (Homo sapiens, UniProt P45984).
T1 construct: His6 (N)
Nature of the assay: JNK assay (c-Jun phosphorylation), JNK2. It counts as biochemical. The settings on record: read-out: IC50 for JNK2 (c-Jun phosphorylation reduced to 50% of control). As to the method:
To 10 μL of 5-amino-anthra(9,1-cd)isothiazol-6-one in 20% DMSO/80% dilution buffer containing of 20 mM HEPES (pH 7.6), 0.1 mM EDTA, 2.5 mM magnesium chloride, 0.004% Triton ×100, 2 μg/mL leupeptin, 20 mM β-glycerolphosphate, 0.1 mM sodium vanadate, and 2 mM DTT in water was added 30 μL of 50-200 ng His6-JNK1, JNK2, or JNK3 in the same dilution buffer. The mixture was pre-incubated for 30 minutes at room temperature. Sixty microliter of 10 μg GST-c-Jun(1-79) in assay buffer consisting of 20 mM HEPES (pH 7.6), 50 mM sodium chloride, 0.1 mM EDTA, 24 mM magnesium chloride, 1 mM DTT, 25 mM PNPP, 0.05% Triton ×100, 11 μM ATP, and 0.5 μCi γ-32P ATP in water was added and the reaction was allowed to proceed for 1 hour at room temperature. The c-Jun phosphorylation was terminated by addition of 150 μL of 12.5% trichloroacetic acid. After 30 minutes, the precipitate was harvested onto a filter plate, diluted with 50 μL of the scintillation fluid and quantified by a counter. The IC50 values were calculated as the concentration of 5-amino-anthra(9,1-cd)isothiazol-6-one at which the c-Jun phosphorylation was reduced to 50% of the control value. Compounds that inhibit JNK preferably have an IC50 value ranging 0.01-10 μM in this assay. 5-Amino-anthra(9,1-cd)isothiazol-6-one has an IC50 according to this assay of 1 μM for JNK2 and 400 nM for JNK3.

For a further assay, the target named is T2, LKK1 (Homo sapiens, UniProt O15111).
T2 sequence (O15111 1-745): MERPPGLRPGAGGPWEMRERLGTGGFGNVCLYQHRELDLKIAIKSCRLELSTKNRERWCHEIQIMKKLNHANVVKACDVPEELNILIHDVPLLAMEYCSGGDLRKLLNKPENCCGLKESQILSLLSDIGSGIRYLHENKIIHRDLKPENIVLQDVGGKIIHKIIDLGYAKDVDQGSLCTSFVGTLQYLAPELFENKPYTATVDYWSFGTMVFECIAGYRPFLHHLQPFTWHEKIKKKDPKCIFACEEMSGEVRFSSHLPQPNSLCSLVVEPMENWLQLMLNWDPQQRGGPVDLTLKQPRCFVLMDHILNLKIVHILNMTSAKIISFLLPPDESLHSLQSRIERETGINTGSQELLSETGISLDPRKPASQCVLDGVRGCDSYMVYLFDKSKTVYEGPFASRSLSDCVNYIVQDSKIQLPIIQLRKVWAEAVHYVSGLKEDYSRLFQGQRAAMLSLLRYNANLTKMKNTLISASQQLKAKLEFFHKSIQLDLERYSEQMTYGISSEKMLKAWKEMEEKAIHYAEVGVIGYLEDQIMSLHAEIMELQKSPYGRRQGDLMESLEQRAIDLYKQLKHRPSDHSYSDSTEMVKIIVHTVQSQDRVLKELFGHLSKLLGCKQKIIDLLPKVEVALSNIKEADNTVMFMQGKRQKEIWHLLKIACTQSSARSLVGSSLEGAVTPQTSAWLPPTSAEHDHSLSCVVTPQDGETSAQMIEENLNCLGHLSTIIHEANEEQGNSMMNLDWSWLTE
Nature of the assay: Selectivity for JNK: protein kinase panel, LKK1. It counts as biochemical. As to the method: 5-Amino-anthra(9,1-cd)isothiazol-6-one was also assayed for its inhibitory activity against several protein kinases, listed below, using techniques known to those skilled in art (See, e.g., Protein Phosphorylation, Sefton & Hunter, Eds., Academic Press, pp. 97-367, 1998).

Each structure is given as a SMILES string.

T1 sequence (P45984 whole entry): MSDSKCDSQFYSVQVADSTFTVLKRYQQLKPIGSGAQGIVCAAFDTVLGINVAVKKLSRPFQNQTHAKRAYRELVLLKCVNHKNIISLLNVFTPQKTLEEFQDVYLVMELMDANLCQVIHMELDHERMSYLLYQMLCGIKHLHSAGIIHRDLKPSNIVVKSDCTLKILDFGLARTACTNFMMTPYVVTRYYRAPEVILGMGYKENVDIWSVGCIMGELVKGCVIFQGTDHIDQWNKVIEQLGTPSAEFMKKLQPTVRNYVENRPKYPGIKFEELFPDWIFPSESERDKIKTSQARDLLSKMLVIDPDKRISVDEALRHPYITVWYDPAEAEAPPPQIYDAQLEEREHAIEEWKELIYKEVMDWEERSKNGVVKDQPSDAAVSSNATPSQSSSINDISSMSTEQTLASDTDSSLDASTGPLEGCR

In the case of `Nc1ccc2snc3c2c1C(=O)c1ccccc1-3` [5-amino-anthra(9,1-cd)isothiazol-6-one], the results for the half-maximal inhibitory concentration (IC50) on His6-JNK2 and against LKK1 were 1000 nM and more than 30000 nM, respectively.
